Assays:
[1] = biological target: Type IV Phosphodiesterase (PDE IV); assay: Effect on enzymatic activity of type IV phosphodiesterase (PDE IV); type: biochemical; settings: crude enzyme from cytoplasmic fraction of human monocyte-like cell strain U937; 3H-cAMP substrate, 30° C., 15 minutes; read-out: PDE IV Inhibitory Activity: IC50
Description: PDE IV inhibitory activity of the compounds of the present invention was examined. […] Adv.
Effect on Enzymatic Activity of Type IV Phosphodiesterase (PDE IV)
After a test compound was added, the reaction mixture was incubated at 30° C. for 15 minutes, and then added with the substrate.

Row | SMILES | IC50 [1] | melting point
1 | COc1ccc(Cn2c(C)nc3cnc(OCc4cccnc4)nc32)cc1OC1CCCC1 [compound 36] | 2.6 nM | –
2 | COc1ccc(Cn2c(C)nc3cnc(NCc4cccnc4)nc32)cc1OC1CCCC1 [compound 37] | 1 nM | –
3 | COc1ccc(Cn2cnc3cnc(NCc4cccs4)nc32)cc1OC1CCCC1 [compound 41] | 0.47 nM | 141 to 142 °C
4 | COc1ccc(Cn2c(C)nc3cnc(OCCCc4ccncc4)nc32)cc1OC1CCCC1 [compound 56] | 1.3 nM | 115 to 117 °C
5 | CNc1nc(OCCCc2ccncc2)nc2c1ncn2Cc1ccc(OC)c(OC2CCCC2)c1 [compound 72] | 0.75 nM | 138 to 140 °C
6 | COc1ccc(Cn2c(C)nc3cnc(NCc4ccc(OCC(F)(F)F)nc4)nc32)cc1OC1CCCC1 [compound 77] | 0.83 nM | 125 to 127 °C
7 | COc1ccc(Cn2cnc3c(N(C)C)nc(OCCCc4ccncc4)nc32)cc1OC1CCCC1 [compound 82] | 0.82 nM | 78 to 80 °C
8 | CCNc1nc(OCCCc2ccncc2)nc2c1ncn2Cc1ccc(OC)c(OC2CCCC2)c1 [compound 83] | 0.69 nM | 127 to 128 °C
9 | COc1ccc(Cn2cnc3c(C)nc(NCc4ccncc4)nc32)cc1OC1CCCC1 [compound 84] | 1.9 nM | 137 to 138 °C
10 | CCCNc1nc(OCCCc2ccncc2)nc2c1ncn2Cc1ccc(OC)c(OC2CCCC2)c1 [compound 93] | 0.44 nM | 130 to 131 °C
11 | COc1ccc(Cn2c(C)nc3c(C)nc(OCc4ccncc4)nc32)cc1OC1CCCC1 [compound 95] | 1.7 nM | 125 to 126 °C
12 | COc1ccc(Cn2c(C)nc3c(C)nc(OCc4cc[n+]([O-])cc4)nc32)cc1OC1CCCC1 [compound 102] | 15 nM | 157 to 158 °C
13 | COc1ccc(Cn2cnc3c(N(C)C)nc(NCc4cccnc4)nc32)cc1OC1CCCC1 [compound 104] | 1.1 nM | 112 to 114 °C
14 | CCNc1nc(Cl)nc2c1ncn2Cc1ccc(OC)c(OC2CCCC2)c1 [compound 134] | 41 nM | 129 to 131 °C
15 | COc1ccc(Cn2cnc3ncnc(OCc4cccnc4)c32)cc1OC1CCCC1 [compound 137] | 64 nM | 143 to 145 °C

More lines, now with the values ahead:

Row | IC50 [1] | melting point | SMILES
16 | 8.9 nM | – | COc1ccc(Cn2cnc3c(OCc4cccnc4)ncnc32)cc1OC1CCCC1 [compound 2]
17 | 4.5 nM | 128 to 130 °C | COc1ccc(Cn2cnc3cnc(OCCCc4ccncc4)nc32)cc1OC1CCOC1 (centres unmarked) [compound 55]
18 | 1.4 nM | 152 to 153 °C | COc1ccc(Cn2cnc3c(N)nc(OCCCc4ccncc4)nc32)cc1OC1CCCC1 [compound 66]
19 | 0.2 nM | 92 to 93 °C | COc1ccc(Cn2cnc3c(N(C)C)nc(OCc4ccoc4)nc32)cc1OC1CCCC1 [compound 88]
20 | 3.8 nM | 121 to 122 °C | CCNc1nc(OCc2cccnn2)nc2c1ncn2Cc1ccc(OC)c(OC2CCCC2)c1 [compound 96, 9-[(3-cyclopentyloxy-4-methoxy)benzyl]-6-ethylamino-2-[(3-pyridazinyl)methyloxy]purine]
21 | 0.22 nM | 112 to 123 °C | COc1ccc(Cn2c(C)nc3c(C)nc(OCc4cc(C)nn4C)nc32)cc1OC1CCCC1 [compound 112]
22 | 24 nM | 164 to 166 °C | COc1ccc(Cn2c(C)nc3c(C)nc(NCc4cccnn4)nc32)cc1OC1CCCC1 [compound 113]
23 | 0.64 nM | 116 to 117 °C | COc1ccc(Cn2c(C)nc3c(C)nc(SCc4cccnc4)nc32)cc1OC1CCCC1 [compound 119]
24 | 15 nM | 85 to 88 °C | CCNc1nc(OCCCc2cc[n+]([O-])cc2)nc2c1ncn2Cc1ccc(OC)c(OC2CCCC2)c1 [compound 122]
25 | 54 nM | 134 to 135 °C | COc1ccc(Cn2cnc3ncnc(Oc4cccnc4)c32)cc1OC1CCCC1 [compound 139]
